Reference: PMC10518255, “A first-in-class pan-lysyl oxidase inhibitor impairs stromal remodeling and enhances gemcitabine response and survival in pancreatic cancer” (Nature Cancer, 2023)

Legend:
[1] = Tissue concentration by LC-MS/MS after single oral dose of 30 mg/kg (plasma, kidney, liver, lung, heart, ear; Extended Data Fig. 3e)
Experimental: PXS-5505 concentration, as measured by LC–MS/MS, in rat plasma, kidney, liver, lung, heart and ear samples following a single oral dose of 30 mg/kg (n = 3 independent animals). Data presented as mean values +/− SD. f. Plasma concentration profile over time in mice following oral administration of PXS-5505 (30 mg/kg) (n = 3 independent animals) g. Schematic of amplex red coupled fluorometric lysyl oxidase family activity assay whereby putrescine (put) is used as a substrate resulting in the release of H2O2 and its subsequent catalysis by horseradish peroxidase (HRP) to […] amplex red to resorufin resulting in a fluorescently detectable signal. […] Data presented as mean values +/− SD. h. qRT-PCR showing in vitro 48 hour treatment of KPC CAFs or cancer cells with 30 μM PXS-5505 or vehicle control (n = 3 biological repeats with 3 technical replicates per biological repeat). Data presented as mean values +/− SD. Relative fold expression of lysyl oxidase family members from PXS-5505 treated samples compared to control were determined by the 2^–∆∆Ct approach. p-values determined by unpaired, nonparametric t-test with a Mann–Whitney U correction (comparison between two groups). i. 2D in vitro cell viability assay (MTS assay) for KPC CAFs and CCs (n = 3 biological repeats with 3 technical replicates per biological repeat) in response to PXS-5505. Data presented as mean values +/− SD. Ordinary one-way ANOVA for multiple comparison test performed. j. 3D in vitro cell viability assay (MTS assay) for KPC CAFs and CCs (n = 3 biological repeats with 3 technical replicates per biological repeat) in response to PXS-5505. Data presented as mean values +/− SD. Ordinary one-way ANOVA for multiple comparison test performed. Source data

MPO = assay: Immunohistochemistry of end-point KPC tumors: myeloperoxidase cell infiltration; assay type: in vivo, mouse; conditions: KPC tumours at endpoint; individual replicate values (Extended Data 6H)
Experimental: All tissues or matrices, including patient TMAs, were fixed in 10% buffered formalin and embedded in paraffin. The 4-μm sections of samples were deparaffinized with xylene and rehydrated in graded ethanol washes. For immunohistochemistry, Bond Dewax Solution (AR9222) was used. Antigen retrieval was performed using Bond RX H2(30) protocol: HIER 30 min ER1 (citrate pH 6) OR ER2 (EDTA pH 9) at 100 °C. Slides were quenched in BOND Polymer Refine Detection (Leica Biosystems DS9800). […] Slides were digitized on an Aperio slide scanner and representative areas per tumor acquired and analyzed by researchers blinded to the conditions of the experiment.
Extended Data Fig. 6 PXS-5505 in combination with gemcitabine in a KPC model. a. Quantification of proliferating cells (Ki67 positive nuclear staining) in KPC tumors at end point, treated as indicated. 5 fields of view (500 μm × 500 μm) per mouse and 10 mice per cohort were scored. […] Quantification of percent coverage of αSMA positive staining in KPC tumors at end point, treated as indicated. 3 fields of view (1000 μm × 1000 μm) per mouse and 10 mice per cohort were scored. […] Quantification of percent coverage of PDGFR-ß positive staining in KPC tumors at end point, treated as indicated. 3 fields of view (1000 μm × 1000 μm) per mouse and 10 mice per cohort were scored. […] 3 fields of view (500 μm × 500 μm) per mouse and 10 mice per cohort were scored. […]

[2] = rat, single oral dose 30 mg/kg, 1 hr, n = 3

For `Cl.Cl.NC/C=C(\F)CS(=O)(=O)c1cccc2cccnc12.O` [PXS-5505, (Z)-3-fluoro-4-(quinolin-8-ylsulfonyl)but-2-en-1-amine dihydrochloride monohydrate], the tissue penetration ([1]; after oral administration) was “penetrates core and peripheral matrix-rich tissues (the ear pinnae) well”, the “PXS-5505 concentration by LC-MS/MS, ear, Mean” value [1, 2] was 1911.2 and the “PXS-5505 concentration by LC-MS/MS, heart, Mean” value [1, 2] was 5777.3. The “PXS-5505 concentration by LC-MS/MS, kidney, Mean” value [1, 2] was 19237.2, the “PXS-5505 concentration by LC-MS/MS, liver, Mean” value [1, 2] was 32467.6 and the “PXS-5505 concentration by LC-MS/MS, lung, Mean” value [1, 2] was 954.9. The “PXS-5505 concentration by LC-MS/MS, plasma, Mean” value [1, 2] was 3609.6 and the “number of myeloperoxidase (MPO+) cell infiltration” value (MPO) was 11.
